From PubChem BioAssay AID248 (DTP/NCI, 2004)
“And” between values parts separate entries of the source, which are not always exact repeats. Identical values can stand only once. Inconclusive results and toxic doses are left out.

System: L1210 leukemia ip in BDF1 mice, survival T/C
Assay: NCI In Vivo Anticancer Drug Screen. Data for tumor model L1210 Leukemia (intraperitoneal) in B6D2F1 (BDF1) mice
Details: endpoint: mean survival time, higher = longer survival
Summary of the method: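 Value reflects the ratio of survival in compound-treated mice to survival in vehicle-treated controls, with both groups carrying the same transplanted tumor.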

[1] = dose: 100.0 mg/kg/injection, schedule: Q04DX003 (ip), vehicle: saline with Tween-80
[2] = dose: 25.0 mg/kg/injection, schedule: Q01DX009 (ip), vehicle: Klucel (hydroxypropylcellulose) (HPC)
[3] = dose: 50.0 mg/kg/injection, schedule: Q01DX009 (ip), vehicle: Klucel (hydroxypropylcellulose) (HPC)
[4] = dose: 100.0 mg/kg/injection, schedule: Q01DX009 (ip), vehicle: Klucel (hydroxypropylcellulose) (HPC)
[5] = dose: 100.0 mg/kg/injection, schedule: Q04DX003 (ip), vehicle: Klucel (hydroxypropylcellulose) (HPC)
[6] = dose: 200.0 mg/kg/injection, schedule: Q04DX003 (ip), vehicle: Klucel (hydroxypropylcellulose) (HPC)
[7] = dose: 400.0 mg/kg/injection, schedule: Q04DX003 (ip), vehicle: Klucel (hydroxypropylcellulose) (HPC)
[8] = dose: 100.0 mg/kg/injection, schedule: Q01DX009 (ip), vehicle: saline
[9] = dose: 200.0 mg/kg/injection, schedule: Q01DX009 (ip), vehicle: saline
[10] = dose: 100.0 mg/kg/injection, schedule: Q01DX009 (ip), vehicle: other
[11] = dose: 200.0 mg/kg/injection, schedule: Q04DX003 (ip), vehicle: saline with Tween-80
[12] = dose: 25.0 mg/kg/injection, schedule: Q04DX003 (ip), vehicle: Klucel (hydroxypropylcellulose) (HPC)
[13] = dose: 50.0 mg/kg/injection, schedule: Q04DX003 (ip), vehicle: Klucel (hydroxypropylcellulose) (HPC)
[14] = dose: 50.0 mg/kg/injection, schedule: Q04DX003 (ip), vehicle: saline
[15] = dose: 100.0 mg/kg/injection, schedule: Q04DX003 (ip), vehicle: saline
[16] = dose: 400.0 mg/kg/injection, schedule: Q04DX003 (ip), vehicle: saline with Tween-80

## CCCCNCCN(CC)CC
[1]
  T/C: 98 % of control

## CCOC(=O)C(Cc1ccccc1Cl)(NC(C)=O)C(=O)OCC
dose: 100.0 mg/kg/injection, schedule: Q01DX009 (ip), vehicle: saline with Tween-80
  T/C: 93 % of control
dose: 200.0 mg/kg/injection, schedule: Q01DX009 (ip), vehicle: saline with Tween-80
  T/C: 100 % of control
dose: 400.0 mg/kg/injection, schedule: Q01DX009 (ip), vehicle: saline with Tween-80
  T/C: 104 % of control

## c1ccc(C(c2ccccc2)c2ccc3ccccc3n2)cc1
dose: 100.0 mg/kg/injection, schedule: Q04DX003 (ip), vehicle: acetone
  T/C: 90 % of control
dose: 200.0 mg/kg/injection, schedule: Q04DX003 (ip), vehicle: acetone
  T/C: 99 % of control
dose: 400.0 mg/kg/injection, schedule: Q04DX003 (ip), vehicle: acetone
  T/C: 94 % of control

## COc1ccc(C)cc1NC(=S)NC(=O)C(C)Oc1ccccc1 (stereo not given)
[2]
  T/C: 95 % of control
[3]
  T/C: 93 % of control
[4]
  T/C: 101 % of control and 91 % of control
[5]
  T/C: 97 % of control
[6]
  T/C: 103 % of control
[7]
  T/C: 97 % of control

## CCC(=O)OCCOc1ccc(C(C)(C)C)cc1
dose: 50.0 mg/kg/injection, schedule: Q04DX002 (ip), vehicle: saline
  T/C: 98 % of control
[8]
  T/C: 98 % of control
dose: 100.0 mg/kg/injection, schedule: Q04DX002 (ip), vehicle: saline
  T/C: 94 % of control
[9]
  T/C: 103 % of control
dose: 200.0 mg/kg/injection, schedule: Q04DX002 (ip), vehicle: saline
  T/C: 91 % of control

## COc1ccc(OC)c(/C=C/c2ccc3ccccc3[n+]2C)c1
dose: 5.0 mg/kg/injection, schedule: Q04DX003 (ip), vehicle: saline with Tween-80
  T/C: 110 % of control
dose: 10.0 mg/kg/injection, schedule: Q04DX003 (ip), vehicle: saline with Tween-80
  T/C: 111 % of control
dose: 20.0 mg/kg/injection, schedule: Q04DX003 (ip), vehicle: saline with Tween-80
  T/C: 117 % of control

## COc1ccccc1C(C#N)NCCCNC(C#N)c1ccccc1OC (stereo not given)
dose: 10.0 mg/kg/injection, schedule: Q01DX001 (ip), vehicle: saline
  T/C: 89 % of control
dose: 20.0 mg/kg/injection, schedule: Q01DX001 (ip), vehicle: saline
  T/C: 110 % of control

## COc1nc(Cl)nc(Cl)c1Cl (tested in a mixture with another compound)
dose: 50.0 mg/kg/injection, schedule: Q01DX009 (ip), vehicle: other
  T/C: 87 % of control
[10]
  T/C: 102 % of control

## N#CCCN1CCCCCC1
dose: 15.0 mg/kg/injection, schedule: Q01DX009 (ip), vehicle: saline with Tween-80
  T/C: 98 % of control
dose: 30.0 mg/kg/injection, schedule: Q01DX009 (ip), vehicle: saline with Tween-80
  T/C: 95 % of control
dose: 30.0 mg/kg/injection, schedule: Q04DX003 (ip), vehicle: saline with Tween-80
  T/C: 92 % of control
dose: 60.0 mg/kg/injection, schedule: Q01DX009 (ip), vehicle: saline with Tween-80
  T/C: 104 % of control
dose: 60.0 mg/kg/injection, schedule: Q04DX003 (ip), vehicle: saline with Tween-80
  T/C: 109 % of control

## Cc1cccc(N=C(N)N=C(N)N)c1
[1]
  T/C: 102 % of control
[11]
  T/C: 88 % of control

## [N-]=[N+]=NC1=NN2NNN=C2C(N)=C1
dose: 100.0 mg/kg/injection, schedule: Q01DX001 (ip), vehicle: saline
  T/C: 105 % of control
dose: 200.0 mg/kg/injection, schedule: Q01DX001 (ip), vehicle: saline
  T/C: 107 % of control

## N#Cc1cnc(N)cc1N
[2]
  T/C: 96 % of control
[12]
  T/C: 97 % of control
[3]
  T/C: 98 % of control
[13]
  T/C: 100 % of control
[4]
  T/C: 104 % of control
[5]
  T/C: 101 % of control and 104 % of control
[6]
  T/C: 113 % of control

## CC(=O)Nc1c(Cl)cc2c(c1Cl)Cc1cc(N=Cc3ccc4c(c3)OCO4)ccc1-2
dose: 100.0 mg/kg/injection, schedule: Q01DX001 (ip), vehicle: other
  T/C: 91 % of control
dose: 200.0 mg/kg/injection, schedule: Q01DX001 (ip), vehicle: other
  T/C: 101 % of control
dose: 400.0 mg/kg/injection, schedule: Q01DX001 (ip), vehicle: other
  T/C: 100 % of control

## OC1CC2c3ccccc3C1c1cccc[n+]12 (stereo not given)
dose: 12.5 mg/kg/injection, schedule: Q01DX009 (ip), vehicle: Klucel (hydroxypropylcellulose) (HPC)
  T/C: 98 % of control
dose: 12.5 mg/kg/injection, schedule: Q04DX003 (ip), vehicle: Klucel (hydroxypropylcellulose) (HPC)
  T/C: 94 % of control and 97 % of control
dose: 12.5 mg/kg/injection, schedule: Q04DX003 (ip), vehicle: saline
  T/C: 100 % of control
[2]
  T/C: 96 % of control
[12]
  T/C: 103 % of control and 95 % of control
dose: 25.0 mg/kg/injection, schedule: Q04DX003 (ip), vehicle: saline
  T/C: 103 % of control
[3]
  T/C: 94 % of control
[13]
  T/C: 94 % of control and 95 % of control
[14]
  T/C: 97 % of control
[15]
  T/C: 102 % of control

## Cn1ncc2c1NC(c1ccc(F)cc1)SCC2=O (stereo not given)
dose: 400.0 mg/kg/injection, schedule: Q01DX009 (ip), vehicle: gum acacia
  T/C: 108 % of control

## c1ccc2c[n+]3ccccc3cc2c1
dose: 6.25 mg/kg/injection, schedule: Q01DX009 (ip), vehicle: saline
  T/C: 103 % of control
dose: 12.5 mg/kg/injection, schedule: Q01DX009 (ip), vehicle: saline
  T/C: 100 % of control
dose: 25.0 mg/kg/injection, schedule: Q01DX009 (ip), vehicle: saline
  T/C: 111 % of control

## C=C1C(=O)OC2C1CCC(C)C1C=CC(=O)C12C (stereo not given)
dose: 50.0 mg/kg/injection, schedule: Q01DX009 (ip), vehicle: saline
  T/C: 98 % of control
[8]
  T/C: 96 % of control
[9]
  T/C: 98 % of control

## CC(=O)C(=Cc1ccccc1Cl)C(C)=O
dose: 100.0 mg/kg/injection, schedule: Q01DX001 (ip), vehicle: Klucel (hydroxypropylcellulose) (HPC)
  T/C: 104 % of control
[5]
  T/C: 94 % of control
dose: 200.0 mg/kg/injection, schedule: Q01DX001 (ip), vehicle: Klucel (hydroxypropylcellulose) (HPC)
  T/C: 98 % of control
[6]
  T/C: 91 % of control
dose: 400.0 mg/kg/injection, schedule: Q01DX001 (ip), vehicle: Klucel (hydroxypropylcellulose) (HPC)
  T/C: 90 % of control
[7]
  T/C: 100 % of control

## CC(=O)OCC(C(=O)O)(c1ccccc1)c1ccccc1
dose: 55.0 mg/kg/injection, schedule: Q01DX Z (ip), vehicle: methylcellulose (MC)
  T/C: 94 % of control
dose: 83.0 mg/kg/injection, schedule: Q01DX Z (ip), vehicle: methylcellulose (MC)
  T/C: 98 % of control
dose: 125.0 mg/kg/injection, schedule: Q01DX Z (ip), vehicle: methylcellulose (MC)
  T/C: 93 % of control

## NC(=O)NC1CCCCC1
[1]
  T/C: 87 % of control
[11]
  T/C: 97 % of control
[16]
  T/C: 92 % of control

## CCNC(=O)C1C2CC3OC(=O)C1C3C2 (stereo not given)
[1]
  T/C: 90 % of control
[11]
  T/C: 95 % of control
[16]
  T/C: 95 % of control

## COc1cc(NC(C)CCCN2C(=O)c3ccccc3C2=O)c2nc(-c3ccc(Cl)cc3)ccc2c1 (stereo not given)
[14]
  T/C: 90 % of control
[10]
  T/C: 94 % of control
[15]
  T/C: 92 % of control
dose: 200.0 mg/kg/injection, schedule: Q01DX009 (ip), vehicle: other
  T/C: 94 % of control
dose: 200.0 mg/kg/injection, schedule: Q04DX003 (ip), vehicle: saline
  T/C: 90 % of control
dose: 400.0 mg/kg/injection, schedule: Q01DX009 (ip), vehicle: other
  T/C: 101 % of control
dose: 400.0 mg/kg/injection, schedule: Q04DX003 (ip), vehicle: saline
  T/C: 87 % of control

## Nc1nc(=S)c2ncn(C3OC(COC(=O)c4ccc(Cl)cc4)C(OC(=O)c4ccc(Cl)cc4)C3OC(=O)c3ccc(Cl)cc3)c2[nH]1 (stereo not given)
dose: 3.5 mg/kg/injection, schedule: Q01DX Z (ip), vehicle: carboxymethylcellulose (CMC)
  T/C: 113 % of control
dose: 12.0 mg/kg/injection, schedule: Q01DX Z (ip), vehicle: carboxymethylcellulose (CMC)
  T/C: 156 % of control
dose: 12.0 mg/kg/injection, schedule: Q01DX Z (ip), vehicle: saline
  T/C: 170 % of control
dose: 19.0 mg/kg/injection, schedule: Q01DX Z (ip), vehicle: carboxymethylcellulose (CMC)
  T/C: 115 % of control
dose: 44.0 mg/kg/injection, schedule: Q01DX Z (ip), vehicle: carboxymethylcellulose (CMC)
  T/C: 150 % of control
dose: 50.0 mg/kg/injection, schedule: Q01DX Z (ip), vehicle: saline
  T/C: 114 % of control
dose: 150.0 mg/kg/injection, schedule: Q01DX Z (ip), vehicle: carboxymethylcellulose (CMC)
  T/C: 108 % of control
